{"source": "patent US20100298141A1", "about": "“SUBSTITUTED PYRIDINE N-OXIDE HERBICIDES” (E. I. DU PONT DE NEMOURS AND COMPANY, priority 2007, published 2010)", "key": {"downy brome": {"system": "downy brome", "assay": "Test C pre-/postemergence test", "format": "in vivo, Bromus tectorum", "in_short": "(§1)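 Test chemicals were formulated with surfactant in a non-phytotoxic solvent and sprayed both on freshly planted seeds (preemergence) and on 1- to 4-leaf plants of 2–18 cm (postemergence). Flooded-paddy pots received compound directly into 3 cm of standing water, maintained for the test.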"}, "eastern black nightshade": {"system": "eastern black nightshade", "assay": "Test C pre-/postemergence test", "format": "in vivo, Solanum ptycanthum", "in_short": "as §1"}, "rice": {"system": "rice", "assay": "Test C flooded paddy test", "format": "in vivo, Oryza sativa", "settings": "Flood", "in_short": "(§2)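 Compound was added to standing water 3 cm above soil, flood maintained, and plants held in a greenhouse before visual scoring against controls at 13 to 15 days.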"}, "wheat [1]": {"system": "wheat", "assay": "Test A pre-/postemergence greenhouse test", "format": "in vivo, Triticum aestivum", "settings": "for Plant response rating, Wheat: 0 to 100 scale where 0 is no effect and 100 is complete control; for Wheat plant response rating: 0 to 100 scale", "in_short": "(§3)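 Pots of loam–sand soil sown with the test species are sprayed preemergence on the soil surface; emerged seedlings (1–2 leaves, 2–10 cm) are sprayed postemergence at the same time. The vehicle is a non-phytotoxic solvent mixture with surfactant. Injury is scored visually after ~10 d in greenhouse.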"}, "corn": {"system": "corn", "assay": "Test C pre-/postemergence test", "format": "in vivo, Zea mays", "in_short": "as §1"}, "wheat [2]": {"system": "wheat", "assay": "Test C pre-/postemergence test", "format": "in vivo, Triticum aestivum", "in_short": "as §1"}, "yellow nutsedge": {"system": "yellow nutsedge", "assay": "Test C pre-/postemergence test", "format": "in vivo, Cyperus esculentus", "in_short": "as §1"}, "catchweed bedstraw": {"system": "catchweed bedstraw", "assay": "Test C pre-/postemergence test", "format": "in vivo, Galium aparine", "in_short": "as §1"}, "woolly cupgrass": {"system": "woolly cupgrass", "assay": "Test C pre-/postemergence test", "format": "in vivo, Eriochloa villosa", "in_short": "as §1"}, "duck salad": {"system": "duck salad", "assay": "Test C flooded paddy test", "format": "in vivo, Heteranthera limosa", "settings": "Flood", "in_short": "as §2"}, "velvetleaf [3]": {"system": "velvetleaf", "assay": "Test C pre-/postemergence test", "format": "in vivo, Abutilon theophrasti", "in_short": "as §1"}, "wild oat": {"system": "wild oat", "assay": "Test C pre-/postemergence test", "format": "in vivo, Avena fatua", "in_short": "as §1"}, "redroot pigweed": {"system": "redroot pigweed", "assay": "Test A pre-/postemergence greenhouse test", "format": "in vivo, Amaranthus retroflexus", "settings": "for Plant response rating, Pigweed: 0 to 100 scale where 0 is no effect and 100 is complete control; for Pigweed plant response rating: 0 to 100 scale", "in_short": "as §3"}, "giant foxtail": {"system": "giant foxtail", "assay": "Test C pre-/postemergence test", "format": "in vivo, Setaria faberii", "in_short": "as §1"}, "morningglory": {"system": "morningglory", "assay": "Test C pre-/postemergence test", "format": "in vivo, Ipomoea coccinea", "in_short": "as §1"}, "velvetleaf [4]": {"system": "velvetleaf", "assay": "Test A pre-/postemergence greenhouse test", "format": "in vivo, Abutilon theophrasti", "settings": "for Plant response rating, Velvetleaf: 0 to 100 scale where 0 is no effect and 100 is complete control; for Velvetleaf plant response rating: 0 to 100 scale", "in_short": "as §3"}, "johnsongrass": {"system": "johnsongrass", "assay": "Test C pre-/postemergence test", "format": "in vivo, Sorghum halepense", "in_short": "as §1"}, "[5]": {"settings": "62 g ai/ha, Preemergence, scale 0 to 100"}, "[6]": {"settings": "125 g ai/ha, preemergence, scale 0 (no effect) to 100 (complete control)"}, "[7]": {"settings": "Preemergence, 31 g ai/ha, scale 0 to 100 (0 no effect, 100 complete control)"}, "[8]": {"settings": "preemergence, 250 g ai/ha, scale 0 (no effect) to 100 (complete control)"}, "[9]": {"settings": "62 g ai/ha, scale 0 to 100 (0 no effect, 100 complete control)"}, "[10]": {"settings": "250 g ai/ha, scale 0 to 100, 0 no effect, 100 complete control, 13 to 15 days"}, "[11]": {"settings": "Postemergence, 500 g ai/ha, 0 is no effect, 100 is complete control"}, "[12]": {"settings": "Preemergence, 125 g ai/ha, 0 no effect, 100 complete control"}}, "data": [{"smiles": "CCc1cc[n+]([O-])c(S(=O)(=O)Cc2c(C(F)(F)F)nn(C)c2OCC(F)(F)F)c1", "note": "[Compound 60]", "values": [{"measurement": "Bromegrass, Downy plant response rating", "setting": "downy brome; [5]", "result": 55}, {"measurement": "Bromegrass, Downy plant response rating", "setting": "downy brome; [6]", "result": 55}, {"measurement": "Plant response rating, Bromegrass, Downy", "setting": "downy brome; [7]", "result": 0}, {"measurement": "Bromegrass, Downy plant response rating", "setting": "downy brome; [8]", "result": 90}, {"measurement": "Nightshade plant response rating", "setting": "eastern black nightshade; [5]", "result": 80}, {"measurement": "Nightshade plant response rating", "setting": "eastern black nightshade; [6]", "result": 100}, {"measurement": "Nightshade plant response rating", "setting": "eastern black nightshade; [8]", "result": 100}, {"measurement": "Plant response rating, Rice", "setting": "rice; [9]", "result": 0}, {"measurement": "Plant response rating, Rice", "setting": "rice; [10]", "result": 20}, {"measurement": "Plant response rating, Wheat", "setting": "wheat [1]; Postemergence, 125 g ai/ha", "result": 50}, {"measurement": "Wheat plant response rating", "setting": "wheat [1]; [11]", "result": 60}, {"measurement": "Wheat plant response rating", "setting": "wheat [1]; [12]", "result": 50}, {"measurement": "Plant response rating, Wheat", "setting": "wheat [1]; Preemergence, 500 g ai/ha", "result": 70}, {"measurement": "Corn plant response rating", "setting": "corn; [5]", "result": 20}, {"measurement": "Corn plant response rating", "setting": "corn; [6]", "result": 55}, {"measurement": "Plant response rating, Corn", "setting": "corn; [7]", "result": 0}, {"measurement": "Corn plant response rating", "setting": "corn; [8]", "result": 98}, {"measurement": "Wheat plant response rating", "setting": "wheat [2]; [5]", "result": 15}, {"measurement": "Wheat plant response rating", "setting": "wheat [2]; [6]", "result": 30}, {"measurement": "Plant response rating, Wheat", "setting": "wheat [2]; [7]", "result": 0}, {"measurement": "Wheat plant response rating", "setting": "wheat [2]; [8]", "result": 100}, {"measurement": "Nutsedge, Yellow plant response rating", "setting": "yellow nutsedge; [5]", "result": 50}, {"measurement": "Nutsedge, Yellow plant response rating", "setting": "yellow nutsedge; [6]", "result": 100}, {"measurement": "Plant response rating, Nutsedge, Yellow", "setting": "yellow nutsedge; [7]", "result": 20}, {"measurement": "Nutsedge, Yellow plant response rating", "setting": "yellow nutsedge; [8]", "result": 100}, {"measurement": "Galium plant response rating", "setting": "catchweed bedstraw; [5]", "result": 100}, {"measurement": "Galium plant response rating", "setting": "catchweed bedstraw; [6]", "result": 100}, {"measurement": "Plant response rating, Galium", "setting": "catchweed bedstraw; [7]", "result": 0}, {"measurement": "Galium plant response rating", "setting": "catchweed bedstraw; [8]", "result": 100}, {"measurement": "Cupgrass, Woolly plant response rating", "setting": "woolly cupgrass; [5]", "result": 100}, {"measurement": "Cupgrass, Woolly plant response rating", "setting": "woolly cupgrass; [6]", "result": 100}, {"measurement": "Plant response rating, Cupgrass, Woolly", "setting": "woolly cupgrass; [7]", "result": 100}, {"measurement": "Cupgrass, Woolly plant response rating", "setting": "woolly cupgrass; [8]", "result": 100}, {"measurement": "Plant response rating, Ducksalad", "setting": "duck salad; [9]", "result": 0}, {"measurement": "Plant response rating, Ducksalad", "setting": "duck salad; [10]", "result": 40}, {"measurement": "Velvetleaf plant response rating", "setting": "velvetleaf [3]; [5]", "result": 40}, {"measurement": "Velvetleaf plant response rating", "setting": "velvetleaf [3]; [6]", "result": 100}, {"measurement": "Plant response rating, Velvetleaf", "setting": "velvetleaf [3]; [7]", "result": 0}, {"measurement": "Velvetleaf plant response rating", "setting": "velvetleaf [3]; [8]", "result": 100}, {"measurement": "Oat, Wild plant response rating", "setting": "wild oat; [5]", "result": 85}, {"measurement": "Oat, Wild plant response rating", "setting": "wild oat; [6]", "result": 90}, {"measurement": "Plant response rating, Oat, Wild", "setting": "wild oat; [7]", "result": 40}, {"measurement": "Oat, Wild plant response rating", "setting": "wild oat; [8]", "result": 98}, {"measurement": "Plant response rating, Pigweed", "setting": "redroot pigweed; Postemergence, 125 g ai/ha", "result": 60}, {"measurement": "Pigweed plant response rating", "setting": "redroot pigweed; [11]", "result": 80}, {"measurement": "Pigweed plant response rating", "setting": "redroot pigweed; [12]", "result": 100}, {"measurement": "Plant response rating, Pigweed", "setting": "redroot pigweed; Preemergence, 500 g ai/ha", "result": 100}, {"measurement": "Foxtail, Giant plant response rating", "setting": "giant foxtail; [5]", "result": 100}, {"measurement": "Foxtail, Giant plant response rating", "setting": "giant foxtail; [6]", "result": 100}, {"measurement": "Plant response rating, Foxtail, Giant", "setting": "giant foxtail; [7]", "result": 100}, {"measurement": "Foxtail, Giant plant response rating", "setting": "giant foxtail; [8]", "result": 100}, {"measurement": "Morningglory plant response rating", "setting": "morningglory; [5]", "result": 90}, {"measurement": "Morningglory plant response rating", "setting": "morningglory; [6]", "result": 100}, {"measurement": "Plant response rating, Morningglory", "setting": "morningglory; [7]", "result": 50}, {"measurement": "Morningglory plant response rating", "setting": "morningglory; [8]", "result": 100}, {"measurement": "Plant response rating, Velvetleaf", "setting": "velvetleaf [4]; Postemergence, 125 g ai/ha", "result": 60}, {"measurement": "Velvetleaf plant response rating", "setting": "velvetleaf [4]; [11]", "result": 70}, {"measurement": "Velvetleaf plant response rating", "setting": "velvetleaf [4]; [12]", "result": 70}, {"measurement": "Plant response rating, Velvetleaf", "setting": "velvetleaf [4]; Preemergence, 500 g ai/ha", "result": 100}, {"measurement": "Johnsongrass plant response rating", "setting": "johnsongrass; [5]", "result": 100}, {"measurement": "Johnsongrass plant response rating", "setting": "johnsongrass; [6]", "result": 100}, {"measurement": "Plant response rating, Johnsongrass", "setting": "johnsongrass; [7]", "result": 100}, {"measurement": "Johnsongrass plant response rating", "setting": "johnsongrass; [8]", "result": 100}]}]}
